# Test results from patent publication US20080027129A1 (L'OREAL, priority 2006, published 2008).
# Like-named read-outs stand apart in the source and are kept apart here.
# How the values were obtained:
# [1] = system: normal human melanocytes (NHMs); test: viability of cultured normal human melanocytes after a dopamine stress (Alamar Blue); assay type: cell-based; set-up: cell viability after dopamine stress: scale not given here; conditions: for cell viability after dopamine stress / viability at 200 µM: D3, Alamar Blue; for viability at 200 µM: Homo sapiens, Melanocyte, compound 200 μM, read-out: cell viability after dopamine stress
# Method: 1-C-1. Effect of 3H-1,2-dithiole-3-thione (D3T) on the Viability of Cultured Normal Human Melanocytes (NHMs) After a Dopamine Stress:
# The normal human melanocytes (NHMs) were inoculated at DO at the density of 1×10^4 cells/cm^2. After adhesion of the cells (3 h), the active agent studied was added to the culture medium. After 2 hours, the dopamine was added to the culture medium to begin the stress. At D3, the cell viability was measured using Alamar Blue (UP669413 UPTIMA, Interchim) according to the instructions of the supplier.
# [2] = system: normal human melanocytes (NHM); test: reactive oxygen species (ROS) generated by an H2O2 stress in cultured normal human melanocytes; assay type: cell-based; conditions: NHM pretreated 12 h/18 h with compound, H2DCFDA 10 μM, H2O2 250 μM, read after 15 minutes; FIG. 1
# Method: Protocol for measuring the reactive oxygen species (ROS) generated by an H2O2 stress in cultured normal human melanocytes (NHM)
# The normal human melanocytes (NHMs) were inoculated at D0 at the density of 4×10^4 cells/cm^2. […] After 20 minutes, the H2DCFDA solution was replaced with the culture medium. The NHMs were left for 30 minutes before adding the H2O2 solution (250 μM). The fluorescence was measured after 15 minutes in a fluoroscan (excitation: 485 nm, emission: 538 nm).
# The compounds studied were used depending on their properties (concentration, preincubation time). N-Acetylcysteine (A9165-Sigma) was used as a reference molecule. The melanocytes were pretreated, 12 h/18 h at 37° C., with the compound studied in the culture medium, before being brought into contact for 20 minutes with H2DCFDA (10 μM in PBS). The H2DCFDA solution was then replaced with the culture medium containing the active agent studied. After incubating for 30 minutes the oxidative stress was induced by addition of 250 μM of H2O2 in the culture medium. The fluorescence was measured after 15 minutes in a fluoroscan (excitation: 485 nm, emission: 538 nm).
# The results represent the crude fluorescence data, from which the auto-fluorescence values of “blank” cells, expressed in fluorescence units (fu), obtained during a representative experiment, have been deducted, see FIG. 1.
# GSH = conditions: described in the literature; cited from earlier work
compound,measurement,setting,value
anethole dithiolethione [ADT],survival of the cells under dopamine stress compared with the reference compound,"[1]; FIG. 3, versus N-acetylcysteine",increases the survival of the cells with a better efficiency than N-acetylcysteine
same,cell viability after dopamine stress,"[1]; compound 2 μM, dopamine 0.00 μM",100.00
same,cell viability after dopamine stress,"[1]; compound 2 μM, dopamine 20.00 μM",97.48
same,cell viability after dopamine stress,"[1]; compound 2 μM, dopamine 40.00 μM",100.00
same,cell viability after dopamine stress,"[1]; compound 2 μM, dopamine 60.00 μM",98.74
same,cell viability after dopamine stress,"[1]; compound 2 μM, dopamine 70.00 μM",95.90
same,cell viability after dopamine stress,"[1]; compound 2 μM, dopamine 80.00 μM",92.43
same,cell viability after dopamine stress,"[1]; compound 2 μM, dopamine 90.00 μM",82.02
same,cell viability after dopamine stress,"[1]; compound 2 μM, dopamine 100.00 μM",51.42
same,cell viability after dopamine stress,"[1]; compound 15 μM, dopamine 0.00 μM",100.00
same,cell viability after dopamine stress,"[1]; compound 15 μM, dopamine 20.00 μM",92.68
same,cell viability after dopamine stress,"[1]; compound 15 μM, dopamine 40.00 μM",95.22
same,cell viability after dopamine stress,"[1]; compound 15 μM, dopamine 60.00 μM",95.54
same,cell viability after dopamine stress,"[1]; compound 15 μM, dopamine 70.00 μM",94.90
same,cell viability after dopamine stress,"[1]; compound 15 μM, dopamine 80.00 μM",94.90
same,cell viability after dopamine stress,"[1]; compound 15 μM, dopamine 90.00 μM",87.58
same,cell viability after dopamine stress,"[1]; compound 15 μM, dopamine 100.00 μM",81.21
same,"reactive oxygen species (ROS) induced by H2O2, fluorescence",[2],decrease of the reactive oxygen species
same,level of GSH,GSH,increasing the level of GSH
C=CCN=C=S [allyl isothiocyanate],level of GSH,GSH,increasing the level of GSH
S=C=NCCc1ccccc1 [phenethyl isothiocyanate],level of GSH,GSH,increasing the level of GSH
"CC(=O)N[C@@H](CS)C(=O)O [NAC, N-Acetylcysteine, reference compound]",viability at 200 µM,[1]; dopamine 0.00 μM,100%
same,viability at 200 µM,[1]; dopamine 20.00 μM,102%
same,viability at 200 µM,[1]; dopamine 40.00 μM,102%
same,viability at 200 µM,[1]; dopamine 60.00 μM,99.7%
same,viability at 200 µM,[1]; dopamine 70.00 μM,95.7%
same,viability at 200 µM,[1]; dopamine 80.00 μM,89.4%
same,viability at 200 µM,[1]; dopamine 90.00 μM,77.7%
same,viability at 200 µM,[1]; dopamine 100.00 μM,23.8%
C[S@@+]([O-])CCCCN=C=S [sulforaphane],level of GSH,GSH,increasing the level of GSH
"S=c1ccss1 [D3T, 3H-1,2-dithiole-3-thione]","reactive oxygen species (ROS) induced by H2O2, fluorescence",[2],decrease of the reactive oxygen species
same,level of GSH,GSH,increasing the level of GSH
